Experimental data from US20250059131A1, “FLUORINATED CATIONIC LIPIDS FOR USE IN LIPID NANOPARTICLES” (Acuitas Therapeutics, Inc., priority 2021, published 2025).
Marks after values point to notes of the source that are not given here.

Assays:
[1] = system: luciferase expression in the liver; assay: Luciferase mRNA in vivo evaluation using lipid nanoparticle compositions; design: species or system mice; conditions: tail vein injection, 4 hours after administration, LNP formulation; for Liver Luc @ 0.5 mg/kg (ng luc/g): 0.5 mg mRNA/kg
Method: Lipid nanoparticles were prepared and tested according to the general procedures described in PCT Pub. Nos. WO 2015/199952 and WO 2017/004143, the full disclosures of which are incorporated herein by reference. Briefly, cationic lipid, DSPC, cholesterol and PEG-lipid were solubilized in ethanol at a molar ratio of about 50:10:38.5:1.5 or about 47.5:10:40.7:1.8. Lipid nanoparticles (LNP) were prepared at a total lipid to mRNA weight ratio of approximately 10:1 to 40:1. The mRNA is diluted to 0.2 mg/mL in 10 to 50 mM citrate or acetate buffer, pH 4. Syringe pumps were used to mix the ethanolic lipid solution with the mRNA aqueous solution at a ratio of about 1:5 to 1:3 (vol/vol) with total flow rates above 15 mL/min. The ethanol was then removed and the external buffer replaced with PBS by dialysis. Finally, the lipid nanoparticles were filtered through a 0.2 µm pore sterile filter. Lipid nanoparticle particle size was approximately 55-95 nm diameter, and in some instances approximately 70-90 nm diameter as determined by quasi-elastic light scattering using a Malvern Zetasizer Nano ZS (Malvern, UK).
Studies were performed in 6-8 week old female C57BL/6 mice (Charles River) or 8-10 week old CD-1 (Harlan) mice (Charles River) according to guidelines established by an institutional animal care committee (ACC) and the Canadian Council on Animal Care (CCAC). Varying doses of mRNA-lipid nanoparticle were systemically administered by tail vein injection and animals euthanized at a specific time point (e.g., 4 hours) post-administration. Liver and spleen were collected in pre-weighed tubes, weights determined, immediately snap frozen in liquid nitrogen and stored at −80° C. until processing for analysis.
For liver, approximately 50 mg was dissected for analyses in a 2 mL FastPrep tubes (MP Biomedicals, Solon OH). […] ceramic sphere (MP Biomedicals) is added to each tube and 500 μL of Glo Lysis Buffer—GLB (Promega, Madison WI) equilibrated to room temperature is added to liver tissue. Liver tissues were homogenized with the FastPrep24 instrument (MP Biomedicals) at 2×6.0 m/s for 15 seconds. Homogenate was incubated at room temperature for 5 minutes prior to a 1:4 dilution in GLB and assessed using SteadyGlo Luciferase assay system (Promega). Specifically, 50 μL of diluted tissue homogenate was reacted with 50 μL of SteadyGlo substrate, shaken for 10 seconds followed by 5 minute incubation and then quantitated using a CentroXS^3 LB 960 luminometer (Berthold Technologies, Germany). The amount of protein assayed was determined by using the BCA protein assay kit (Pierce, Rockford IL). Relative luminescence units (RLU) were then normalized to total μg protein assayed. To convert RLU to ng luciferase a standard curve was generated with QuantiLum Recombinant Luciferase (Promega).
The FLuc mRNA (L-6107 or L-7202) from Trilink Biotechnologies will express a luciferase protein, originally isolated from the firefly, photinus pyralis. FLuc is commonly used in mammalian cell culture to measure both gene expression and cell viability. It emits bioluminescence in the presence of the substrate, luciferin. This capped and poly-adenylated mRNA was fully substituted with respect to uridine and/or cytidine nucleosides.
(§1) Representative compounds of the disclosure shown in Table 2 were formulated using the following molar ratio: 50% cationic lipid/10% distearoylphosphatidylcholine (DSPC)/38.5% Cholesterol/1.5% PEG lipid 2-[2-(ω-methoxy(polyethyleneglycol2000)ethoxy]-N,N-ditetradecylacetamide) or 47.5% cationic lipid/10% DSPC/40.7% Cholesterol/1.8% PEG lipid. Relative activity was determined by measuring luciferase expression in the liver 4 hours following administration via tail vein injection as described in Example 1 or by measuring the amount of human IgG in mouse serum as described in example 2. […]

[2] = Determination of pKa of formulated lipids (TNS fluorescence assay in lipid nanoparticles); assay type: physicochemical; conditions: cationic lipid formulated in LNP (cationic lipid/DSPC/cholesterol/PEG-lipid 47.5/10/40.7/1.8 mol %), pH of half-maximal fluorescence
Method: As described elsewhere, the pKa of formulated cationic lipids is correlated with the effectiveness of LNPs for delivery of nucleic acids (see Jayaraman et al, Angewandte Chemie, International Edition (2012), 51(34), 8529-8533; Semple et al, Nature Biotechnology 28, 172-176 (2010)). The preferred range of pKa is ˜5 to ˜7. The pKa of each cationic lipid was determined in lipid nanoparticles using an assay based on fluorescence of 2-(p-toluidino)-6-napthalene sulfonic acid (TNS). Lipid nanoparticles comprising cationic lipid/DSPC/cholesterol/PEG-lipid (47.5/10/40.7/1.8 mol %) in PBS at a concentration of 0.4 mM total lipid were prepared using the in-line process as described in Example 1. TNS was prepared as a […] stock solution in distilled water. Vesicles were diluted to 24 μM lipid in 2 mL of buffered solutions containing, 10 mM HEPES, 10 mM MES, 10 mM ammonium acetate, 130 mM NaCl, where the pH ranged from 2.5 to 11. An aliquot of the TNS solution was added to give a final concentration of 1 μM and following vortex mixing fluorescence intensity was measured at room temperature in a SLM Aminco Series 2 Luminescence Spectrophotometer using excitation and emission wavelengths of 321 nm and 445 nm. A sigmoidal best fit analysis was applied to the fluorescence data and the pKa was measured as the pH giving rise to half-maximal fluorescence intensity.

human IgG in mouse serum = assay: Immunoglobulin G (IgG) mRNA in vivo evaluation using lipid nanoparticle compositions; design: species or system mice; conditions: tail vein injection, 24 hours after administration, LNP formulation; for Serum IgG @ 0.3 mg/kg: 0.3 mg mRNA/kg; for Serum IgG @ 1.0 mg/kg: 1.0 mg mRNA/kg
Method: A lipid of structure (I), DSPC, cholesterol and PEG-lipid are solubilized in ethanol at a molar ratio of 50:10:38.5:1.5 or 47.5:10:40.7:1.8. Lipid nanoparticles (LNP) are prepared at a total lipid to mRNA weight ratio of approximately 10:1 to 40:1. Briefly, the mRNA is diluted to 0.2 mg/mL in 10 to 50 mM citrate buffer, pH 4 or 10 to 25 mM acetate buffer, pH 4. Syringe pumps are used to mix the ethanolic lipid solution with the mRNA aqueous solution at a ratio of about 1:5 to 1:3 (vol/vol) with total flow rates above 15 mL/min. The ethanol is then removed and the external buffer replaced with PBS by dialysis. Finally, the lipid nanoparticles are filtered through a 0.2 µm pore sterile filter.
Studies are performed in 6-8 week old CD-1/ICR mice (Envigo) according to guidelines established by an institutional animal care committee (ACC) and the Canadian Council on Animal Care (CCAC). Varying doses of mRNA-lipid nanoparticle are systemically administered by tail vein injection and animals euthanized at a specific time point (e.g., 24 hours) post-administration. The whole blood is collected, and the serum subsequentially separated by centrifuging the tubes of the whole blood at 2000× g for 10 minutes at 4° C. and stored at −80° C. until use for analysis.
For immunoglobulin G (IgG) ELISA (Life Diagnostics Human IgG ELISA kit), the serum samples are diluted at 100 to 15000 folds with 1× diluent solution. 100 μL of diluted serum is dispensed into anti-human IgG coated 96-well plate in duplicate alongside human IgG standards and incubated in a plate shaker at 150 rpm at 25° C. for 45 minutes. The wells are washed 5 times with 1× wash solution using a plate washer (400 μL/well). […] The absorbance is read at 450 nm (A450) with a microplate reader. The amount of human IgG in mouse serum is determined by plotting A450 values for the assay standard against human IgG concentration.
as §1, with “2. The activity was compared at a dose of 1.0 or 0.5 or 0.3 mg mRNA/kg and expressed as ng luciferase/g liver measured 4 hours after administration, as described in Example 1 or as μg IgG/mL serum measured 24 hours after administration, as described in Example 2.” for “2.”

Structure (SMILES) | Liver Luc @ 0.5 mg/kg (ng luc/g) [1] [ng luc/g] | pKa [2] | Liver Luc, determined at 0.3 mg/kg (ng luc/g) ([1]; 0.3 mg mRNA/kg) | Liver Luc, determined at 1.0 mg/kg (ng luc/g) ([1]; 1.0 mg mRNA/kg) | Serum IgG @ 0.3 mg/kg (human IgG in mouse serum) [µg/mL] | Serum IgG @ 1.0 mg/kg (human IgG in mouse serum) [µg/mL]
CCCCCCCCCC(OC(=O)CCCCCCCN(CCO)CCCCCCCC(=O)OC(CCCCCCCCC)C(F)(F)C(F)(F)F)C(F)(F)C(F)(F)F (stereo not drawn) [Compound I-1, BIS(1,1,1,2,2-PENTAFLUORODODECAN-3-YL) 8,8′-((2-HYDROXYETHYL)AZANEDIYL)DIOCTANOATE] | 1233 ± 305 | 5.88 | – | – | – | –
CCCCCCCCCC(OC(=O)CCCCCN(CCCO)CCCCCC(=O)OC(CCCCCCCCC)C(F)(F)C(F)(F)F)C(F)(F)C(F)(F)F (stereo not drawn) [Compound I-2, BIS(1,1,1,2,2-PENTAFLUORODODECAN-3-YL) 6,6′-((3-HYDROXYPROPYL)AZANEDIYL)DIHEXANOATE] | 511 ± 79 | 5.92 | – | – | – | –
CCCCCCCCCC(OC(=O)CCCCCN(CCCCO)CCCCCC(=O)OC(CCCCCCCCC)C(F)(F)C(F)(F)F)C(F)(F)C(F)(F)F (stereo not drawn) [Compound I-3, BIS(1,1,1,2,2-PENTAFLUORODODECAN-3-YL) 6,6′-((4-HYDROXYBUTYL)AZANEDIYL)DIHEXANOATE] | 3633 ± 1416 | 6.03 | – | – | – | –
CCCCCCCCCC(OC(=O)CCCCCN(CCCCCO)CCCCCC(=O)OC(CCCCCCCCC)C(F)(F)C(F)(F)F)C(F)(F)C(F)(F)F (stereo not drawn) [Compound I-4, BIS(1,1,1,2,2-PENTAFLUORODODECAN-3-YL) 6,6′-((5-HYDROXYPENTYL)AZANEDIYL)DIHEXANOATE] | – | 5.88 | 1336 ± 329 | 14888 + 2009** ng luc/g | – | –
CCCCCCCCCCN(CCCCCCCCCC)C(=O)C(F)CCCCCCN(CCCCCO)CCCCCCC(F)C(=O)N(CCCCCCCCCC)CCCCCCCCCC (stereo not drawn) [Compound I-9, 8,8′-((5-HYDROXYPENTYL)AZANEDIYL)BIS(N,N-DIDECYL-2-FLUOROOCTANAMIDE)] | – | – | – | – | 24.36 ± 4.39 | 239.26 ± 39.80
CCCCCCCCCCN(CCCCCCCCCC)C(=O)C(F)CCCCCCN(C)CCCCCCC(F)C(=O)N(CCCCCCCCCC)CCCCCCCCCC (stereo not drawn) [Compound I-10, 8,8′-(METHYLAZANEDIYL)BIS(N,N-DIDECYL-2-FLUOROOCTANAMIDE)] | – | – | – | – | 12.94 ± 2.03 | 142.26 ± 26.31
CCCCCCCCCC(CC)OC(=O)CCCCCN(CCCCO)CCCCCC(=O)OC(CC)CCCCCCCCC (stereo not drawn) [I-3 analogue, reference compound] | 462 ± 425 | 6.62 | – | – | – | –
